Data as given in PubChem BioAssay (NCI).
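In this assay, cells in 96-well plates receive the compound at five concentrations for 48 hours. Endpoints are linearly interpolated between the surrounding concentrations. At the TGI there is no net growth.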 Where a SMILES comes first, the peptide text is derived from it. The star is where a group is joined. Cbz = O=C(OCc1ccccc1)*

What was measured:
Assay in all cases: NCI-60 cell line screen, 48 h
K-562 leukemia = system: K-562 leukemia
SK-MEL-28 melanoma = system: SK-MEL-28 melanoma
M14 melanoma = system: M14 melanoma
LOX IMVI melanoma = system: LOX IMVI melanoma
HT29 colon = system: HT29 colon
SR leukemia = system: SR leukemia
NCI-H460 lung = system: NCI-H460 lung
TK-10 renal = system: TK-10 renal
UACC-257 melanoma = system: UACC-257 melanoma
ACHN renal = system: ACHN renal
786-0 renal = system: 786-0 renal
OVCAR-8 ovarian = system: OVCAR-8 ovarian
RPMI-8226 leukemia = system: RPMI-8226 leukemia
NCI/ADR-RES ovarian = system: NCI/ADR-RES ovarian
HL-60(TB) leukemia = system: HL-60(TB) leukemia
OVCAR-3 ovarian = system: OVCAR-3 ovarian
SN12C renal = system: SN12C renal
A549 NSCLC = system: A549 NSCLC
NCI-H522 lung = system: NCI-H522 lung
OVCAR-5 ovarian = system: OVCAR-5 ovarian

SMILES	TGI (K-562 leukemia)	TGI (SK-MEL-28 melanoma)	TGI (M14 melanoma)	TGI (LOX IMVI melanoma)	TGI (HT29 colon)	TGI (SR leukemia)	TGI (NCI-H460 lung)	TGI (TK-10 renal)	TGI (UACC-257 melanoma)	TGI (ACHN renal)	TGI (786-0 renal)	TGI (OVCAR-8 ovarian)	TGI (RPMI-8226 leukemia)	TGI (NCI/ADR-RES ovarian)	TGI (HL-60(TB) leukemia)	TGI (OVCAR-3 ovarian)	TGI (SN12C renal)	TGI (A549 NSCLC)	TGI (NCI-H522 lung)	TGI (OVCAR-5 ovarian)
CC(C)[Si]1(C(C)C)OCC2OC3(CO)C(Oc4nc(=O)ccn43)C2O[Si](C(C)C)(C(C)C)O1 (stereo not given)	45.5 µM	29.3 µM	30.4 µM	28.7 µM	27.2 µM	47.1 µM	29.2 µM	32.1 µM	30.1 µM	29.3 µM	28.9 µM	31.8 µM	23.9 µM	41.6 µM	27.1 µM	–	–	–	–	–
Cc1cc(C(F)(F)F)cc(-n2nc(NS(=O)(=O)c3cc(C)c(Cl)cc3S)nc2N)n1	> 100 µM	> 100 µM	> 100 µM	> 100 µM	> 100 µM	> 100 µM	70.7 µM	> 100 µM	> 100 µM	> 100 µM	> 100 µM	> 100 µM	> 100 µM	94.1 µM	77.8 µM	> 100 µM	> 100 µM	> 100 µM	91.5 µM	–
CCOC(=O)c1nc2cc(F)c(N3CCOCC3)cc2[nH]c1=O	> 100 µM	> 100 µM	> 100 µM	–	> 100 µM	> 100 µM	> 100 µM	> 100 µM	> 100 µM	> 100 µM	> 100 µM	> 100 µM	> 100 µM	> 100 µM	> 100 µM	> 100 µM	> 100 µM	> 100 µM	> 100 µM	> 100 µM
CCOC(=O)Cc1ccc(Nc2nc3ccccc3nc2C(=O)OCC)cc1	–	> 100 µM	> 100 µM	> 100 µM	> 100 µM	> 100 µM	> 100 µM	> 100 µM	> 100 µM	> 100 µM	> 100 µM	> 100 µM	–	> 100 µM	> 100 µM	> 100 µM	> 100 µM	> 100 µM	> 100 µM	> 100 µM
CCOC1c2cc(C(C)C)c(O)c(O)c2[C@@]23CCCC(C)(C)C2C1OC3=O (stereo not given in full)	> 100 µM	> 100 µM	> 100 µM	> 100 µM	> 100 µM	> 100 µM	> 100 µM	> 100 µM	> 100 µM	> 100 µM	> 100 µM	> 100 µM	> 100 µM	–	> 100 µM	> 100 µM	> 100 µM	> 100 µM	98.6 µM	> 100 µM
Nc1ccn([C@H]2CO[C@@H](CO)[C@@H]2O)c(=O)n1	> 100 µM	> 100 µM	–	> 100 µM	> 100 µM	> 100 µM	> 100 µM	> 100 µM	> 100 µM	> 100 µM	> 100 µM	–	> 100 µM	> 100 µM	–	> 100 µM	> 100 µM	–	–	> 100 µM
COCOC1C=CCCCC2=CC(C)=C(CC1)O2 (stereo not given)	> 100 µM	> 100 µM	> 100 µM	> 100 µM	> 100 µM	> 100 µM	> 100 µM	> 100 µM	> 100 µM	> 100 µM	> 100 µM	> 100 µM	> 100 µM	> 100 µM	–	> 100 µM	> 100 µM	> 100 µM	> 100 µM	> 100 µM
CC(NC(=O)C(NC(=O)OCc1ccccc1)C(C)C)C(=O)NCC(=O)O (stereo not drawn) (Cbz-Val-Ala-Gly-OH; configuration not given here)	> 100 µM	> 100 µM	> 100 µM	–	> 100 µM	> 100 µM	> 100 µM	> 100 µM	> 100 µM	> 100 µM	> 100 µM	> 100 µM	> 100 µM	> 100 µM	–	> 100 µM	> 100 µM	> 100 µM	> 100 µM	> 100 µM
Cn1c2ccccc2c(=O)c2cccc(C(=O)NC(CS)C(=O)O)c21 (stereo not given)	> 100 µM	> 100 µM	> 100 µM	> 100 µM	> 100 µM	> 100 µM	> 100 µM	> 100 µM	> 100 µM	> 100 µM	> 100 µM	> 100 µM	> 100 µM	> 100 µM	38.9 µM	> 100 µM	> 100 µM	> 100 µM	–	> 100 µM
CC1C=CN(N(C)C)C2=C1C(=O)c1cnccc1C2=O (stereo not given)	–	2.07 µM	1.62 µM	0.307 µM	2.27 µM	0.196 µM	0.389 µM	1.44 µM	0.75 µM	1.06 µM	0.538 µM	3.67 µM	2.65 µM	4.09 µM	4.66 µM	2.37 µM	0.558 µM	2.11 µM	0.55 µM	2.83 µM
CCCC(=O)N1CCN(c2ccc3c(c2)OC(C)O3)CC1 (stereo not given)	> 100 µM	> 100 µM	> 100 µM	–	> 100 µM	> 100 µM	> 100 µM	> 100 µM	> 100 µM	> 100 µM	> 100 µM	> 100 µM	–	> 100 µM	–	> 100 µM	> 100 µM	> 100 µM	> 100 µM	> 100 µM
CN(C)/N=C1/CCC(C(F)(F)F)(C(F)(F)F)O1	> 100 µM	> 100 µM	68.1 µM	66.5 µM	> 100 µM	> 100 µM	> 100 µM	> 100 µM	–	> 100 µM	93.4 µM	–	85.5 µM	69.6 µM	54.8 µM	50.7 µM	81 µM	> 100 µM	99.3 µM	> 100 µM
CNCCCn1c2ccccc2c2c3c(c(-c4ccsc4)cc21)C(=O)NC3=O	–	3.36 µM	1.7 µM	–	2.56 µM	0.349 µM	–	3.23 µM	3.12 µM	1.23 µM	1.48 µM	2.07 µM	–	2.19 µM	4 µM	2.6 µM	2.7 µM	2.76 µM	–	3.16 µM
